Assay results reported in ChEMBL document CHEMBL5634152, “The discovery of water-soluble indazole derivatives as potent microtubule polymerization inhibitors” (Eur J Med Chem, 2023).
In brackets after ≈: the same amount, converted by molar mass. Each block holds one compound with its values, some of them ahead of it. Activity calls are given as the source filed them. The rule behind the calls is not given here.

Experiments:
A549 [1] = test: cells; conditions: Homo sapiens
Description: Antiproliferative activity against human A549 cells assessed as cell growth inhibition incubated for72 hrs by MTT assay

T-24 = test: cells; conditions: Homo sapiens
Description: Antiproliferative activity against human T-24 cells assessed as cell growth inhibition incubated for72 hrs by MTT assay

Huh-7 = test: cells; conditions: Homo sapiens
Description: Antiproliferative activity against human Huh-7 cells assessed as cell growth inhibition incubated for72 hrs by MTT assay

[2] = Lipophilicity, logP of compound in n-octanol-water at 5 mg/ml incubated for 8 hrs by HPLC analysis; assay type: physicochemical
[3] = Aqueous solubility of compound in pH 7.4 at 10 mg/ml by HPLC analysis; assay type: physicochemical; conditions: buffer
A549/TR = test: Antiproliferative activity against human A549/Taxol cells assessed as cell growth inhibition incubated for72 hrs by MTT assay; assay type: functional, cell-based
[4] = Resistance index, ratio of IC50 for human A549/Taxol cells to IC50 for human A549 cells; assay type: functional
A549 [5] = test: Antitumor activity against human A549 cells xenografted in Balb/c nude mouse assessed as tumor growth inhibition at 25 mg/kg, IG qd for 21 days relative to control; assay type: functional; conditions: A549, po, 504 h, time 21 day, read-out: TGI
A549 [6] = test: Induction of apoptosis in human A549 cells assessed as early apoptotic cells at 12.5 nM incubated for 24 hrs by Annexin V/7-Aad staining based flow cytometry (reference value: 1.05 %); assay type: functional
A549 [7] = test: Induction of apoptosis in human A549 cells assessed as necrotic cells at 12.5 nM incubated for 24 hrs by Annexin V/7-Aad staining based flow cytometry (reference value: 2.13 %); assay type: functional
A549 [8] = test: Induction of cell cycle arrest at S phase in human A549 cells at 25 nM incubated for 24 hrs by flow cytometry (reference value: 24.86 %); assay type: functional
A549 [9] = test: Induction of apoptosis in human A549 cells assessed as late apoptotic cells at 50 nM incubated for 24 hrs by Annexin V/7-Aad staining based flow cytometry (reference value: 3.20 %); assay type: functional
Tubulin (Homo sapiens) [10] = biological target: T1, Tubulin (Homo sapiens) (UniProt P68371+Q9H4B7+P0DPH7+P68366+Q13509+Q71U36+P04350+Q3ZCM7+P07437+P68363+Q9BQE3+Q6PEY2+Q13885+Q9BVA1+Q9BUF5); test: Binding affinity to tubulin polymerization at colchicine-binding site in human A549 cells assessed as N,N'-ethylene- bis(iodoacetamide)/beta-tubulin adduct formation incubated for 2 hrs by chemiluminescence based assay; assay type: cell-based; conditions: dose 0.1-25 µM
A549 [11] = test: Inhibition of cell migration in human A549 cells at 50 nM incubated for 24 hrs by wound healing assay relative to control; assay type: functional
A549 [12] = test: Induction of apoptosis in human A549 cells assessed as viable cells at 50 nM incubated for 24 hrs by Annexin V/7-Aad staining based flow cytometry (reference value: 93.63 %); assay type: functional; conditions: read-out: Activity
Tubulin (Homo sapiens) [13] = biological target: T1, Tubulin (Homo sapiens); test: Inhibition of tubulin polymerization in human A549 cells assessed as disruption of microtubule aggregation incubated for 24 hrs by immunofluorescence based analysis; assay type: cell-based; conditions: dose 12.5-25 nM
[14] = Toxicity in Balb/c nude mouse xenografted with human A549 cells assessed as damage in spleen at 25 mg/kg, IG qd for 21 days by H and E staining based analysis; assay type: organism-based; conditions: in vivo, po, 504 h, time 21 day
Tubulin (Homo sapiens) [15] = biological target: T1, Tubulin (Homo sapiens); test: Binding affinity to tubulin polymerization in human A549 cells assessed as N,N'-ethylene- bis(iodoacetamide)/beta-tubulin adduct formation at 5 uM incubated for 2 hrs by chemiluminescence based assay; assay type: cell-based
[16] = Inhibition of pig brain tubulin polymerization measured after 20 mins by absorbance based assay; assay type: tissue-based, Sus scrofa
[17] = Toxicity in Balb/c nude mouse xenografted with human A549 cells assessed as body weight loss at 25 mg/kg, IG qd for 21 days; assay type: organism-based; conditions: in vivo, po, 504 h, time 21 day
A549 [18] = test: Induction of apoptosis in human A549 cells assessed as viable cells at 25 nM incubated for 24 hrs by Annexin V/7-Aad staining based flow cytometry (reference value: 93.63 %); assay type: functional; conditions: read-out: Activity
A549 [19] = test: Induction of apoptosis in human A549 cells assessed as early apoptotic cells at 25 nM incubated for 24 hrs by Annexin V/7-Aad staining based flow cytometry (reference value: 1.05 %); assay type: functional
A549 [20] = test: Induction of cell cycle arrest at G2/M phase in human A549 cells at 25 nM incubated for 24 hrs by flow cytometry (reference value: 3.84 %); assay type: functional
A549 [21] = test: Induction of cell cycle arrest at G2/M phase in human A549 cells at 12.5 nM incubated for 24 hrs by flow cytometry (reference value: 3.84 %); assay type: functional
A549 [22] = test: Induction of apoptosis in human A549 cells assessed as early apoptotic cells at 50 nM incubated for 24 hrs by Annexin V/7-Aad staining based flow cytometry (reference value: 1.05 %); assay type: functional
A549 [23] = test: Induction of cell cycle arrest at S phase in human A549 cells at 12.5 nM incubated for 24 hrs by flow cytometry (reference value: 24.86 %); assay type: functional
A549 [24] = test: Induction of apoptosis in human A549 cells assessed as viable cells at 12.5 nM incubated for 24 hrs by Annexin V/7-Aad staining based flow cytometry (reference value: 93.63 %); assay type: functional; conditions: read-out: Activity
A549 [25] = test: Inhibition of cell migration in human A549 cells at 12.5 nM incubated for 24 hrs by wound healing assay relative to control; assay type: functional
A549 [26] = test: Induction of apoptosis in human A549 cells assessed as late apoptotic cells at 25 nM incubated for 24 hrs by Annexin V/7-Aad staining based flow cytometry (reference value: 3.20 %); assay type: functional
Sus scrofa = species on record: Sus scrofa; test: Inhibition of pig brain tubulin polymerization by absorbance based assay; assay type: tissue-based; conditions: dose <= 6.0 µM
[27] = Toxicity in Balb/c nude mouse xenografted with human A549 cells assessed as damage in liver at 25 mg/kg, IG qd for 21 days by H and E staining based analysis; assay type: organism-based; conditions: in vivo, po, 504 h, time 21 day
Tubulin (Homo sapiens) [28] = biological target: T1, Tubulin (Homo sapiens); test: Inhibition of tubulin polymerization in human A549 cells assessed as decrease in spindle formation incubated for 24 hrs by immunofluorescence based analysis; assay type: cell-based; conditions: dose 12.5-25 nM
A549 [29] = test: Induction of apoptosis in human A549 cells assessed as necrotic cells at 50 nM incubated for 24 hrs by Annexin V/7-Aad staining based flow cytometry (reference value: 2.13 %); assay type: functional
A549 [30] = test: Induction of cell cycle arrest at G1 phase in human A549 cells at 12.5 nM incubated for 24 hrs by flow cytometry (reference value: 71.30 %); assay type: functional
A549 [31] = test: Induction of apoptosis in human A549 cells assessed as late apoptotic cells at 12.5 nM incubated for 24 hrs by Annexin V/7-Aad staining based flow cytometry (reference value: 3.20 %); assay type: functional
A549 [32] = test: Induction of apoptosis in human A549 cells assessed as necrotic cells at 25 nM incubated for 24 hrs by Annexin V/7-Aad staining based flow cytometry (reference value: 2.13 %); assay type: functional
[33] = Toxicity in Balb/c nude mouse xenografted with human A549 cells assessed as damage in kidney at 25 mg/kg, IG qd for 21 days by H and E staining based analysis; assay type: organism-based; conditions: in vivo, po, 504 h, time 21 day
A549 [34] = test: Inhibition of cell migration in human A549 cells at 25 nM incubated for 24 hrs by wound healing assay relative to control; assay type: functional
A549 [35] = test: Induction of cell cycle arrest at G1 phase in human A549 cells at 25 nM incubated for 24 hrs by flow cytometry (reference value: 71.30 %); assay type: functional
Tubulin (Homo sapiens) [36] = biological target: T1, Tubulin (Homo sapiens); test: Binding affinity to tubulin polymerization at colchicine-binding site in human A549 cells assessed as N,N'-ethylene- bis(iodoacetamide)/beta-tubulin adduct formation at 5 to 25 uM incubated for 2 hrs by chemiluminescence based assay; assay type: cell-based; conditions: dose 5-25 µM

SMILES: CCOc1ccc(-c2ccc3cnn(-c4cc(OC)c(OC)c(OC)c4)c3c2)cc1
IC50 (A549 [1]): 1450 nM | IC50 (T-24): 2280 nM | IC50 (Huh-7): 3730 nM

SMILES: COc1cc(-c2ccc3c(C)nn(-c4ccc(C)cc4)c3c2)cc(OC)c1OC
IC50 (A549 [1]): > 25000 nM | IC50 (T-24): > 25000 nM | IC50 (Huh-7): > 25000 nM

SMILES: COc1cc(-n2ncc3ccc(-c4ccc5c(c4)CCO5)cc32)cc(OC)c1OC
IC50 (A549 [1]): 98 nM | IC50 (T-24): 110 nM | IC50 (Huh-7): 79 nM

SMILES: COc1ccc(-n2nc(C)c3ccc(-c4cc(OC)c(OC)c(OC)c4)cc32)cc1
IC50 (A549 [1]): > 25000 nM | IC50 (T-24): > 25000 nM | IC50 (Huh-7): > 25000 nM

SMILES: COc1cc(-n2ncc3ccc(-c4ccc(Cl)cc4)cc32)cc(OC)c1OC
IC50 (A549 [1]): 200 nM | IC50 (T-24): 320 nM | IC50 (Huh-7): 150 nM

SMILES: COc1ccc(-n2ncc3ccc(-c4cc(OC)c(OC)c(OC)c4)cc32)cn1
IC50 (A549 [1]): > 25000 nM | IC50 (T-24): > 25000 nM | IC50 (Huh-7): > 25000 nM

SMILES: COc1cc2c(c(OC)c1OC)-c1ccc(OC)c(=O)cc1[C@@H](NC(C)=O)CC2 [COLCHICINE]
IC50 (T-24): 46 nM | IC50 (Huh-7): 24 nM

SMILES: COc1ccc(-c2ccc3c(C)nn(-c4cc(OC)c(OC)c(OC)c4)c3c2)cn1
IC50 (A549 [1]): 1510 nM | IC50 (T-24): 2230 nM | IC50 (Huh-7): 1060 nM

SMILES: CC[C@]1(O)C[C@H]2CN(CCc3c([nH]c4ccccc34)[C@@](C(=O)OC)(c3cc4c(cc3OC)N(C=O)[C@H]3[C@@](O)(C(=O)OC)[C@H](OC(C)=O)[C@]5(CC)C=CCN6CC[C@]43[C@@H]65)C2)C1
Activity (Tubulin (Homo sapiens) [36]): inactive

Further compounds by falling IC50 (A549 [1]), results first:

IC50 (A549 [1]): 92 nM | IC50 (T-24): 110 nM | IC50 (Huh-7): 100 nM
SMILES: COc1ccc(-c2ccc3cnn(-c4cc(OC)c(OC)c(OC)c4)c3c2)cc1

IC50 (A549 [1]): 90 nM | IC50 (T-24): 270 nM | IC50 (Huh-7): 110 nM
SMILES: COc1cc(-n2ncc3ccc(-c4ccc(F)cc4)cc32)cc(OC)c1OC

logP at 8 h [2]: 3.7 | solubility ([3]; read-out: solubility): 3.48 µg/mL (≈ 10.6 µM) | IC50 (A549 [1]): 60 nM | IC50 (T-24): 130 nM | IC50 (A549/TR): 91 nM | IC50 (Huh-7): 54 nM
SMILES: COc1ccc2c(Nc3cc(OC)c(OC)c(OC)c3)n[nH]c2c1
Ratio IC50 [4]: 1.5 | inhibition in vivo at 25 mg/kg (A549 [5]): 47.8%

IC50 (A549 [1]): 45 nM | IC50 (T-24): 92 nM | IC50 (Huh-7): 51 nM
SMILES: COc1cc(-n2ncc3ccc(-c4ccc(C)cc4)cc32)cc(OC)c1OC

Activity (Tubulin (Homo sapiens) [10]): Dose-Dependent Effect | logP at 8 h [2]: 1.8 | inhibition (Tubulin (Homo sapiens) [13]): Dose-Dependent Effect | Activity (Tubulin (Homo sapiens) [15]): Active | solubility [3]: 149 µg/mL | IC50 [16]: 1750 nM | IC50 (A549 [1]): 27 nM | IC50 (T-24): 46 nM | IC50 (A549/TR): 33 nM | IC50 (Huh-7): 30 nM | inhibition (Tubulin (Homo sapiens) [28]): Dose-Dependent Effect
SMILES: COc1cc(-n2ncc3ccc(-c4ccc(C)nc4)cc32)cc(OC)c1OC.Cl
Activity (A549 [6]): 3.02% | Activity (A549 [7]): 1.44% | Activity (A549 [8]): 7.88% | Activity (A549 [9]): 15.65% | inhibition at 0.05 µM (A549 [11]): 83.9% | viability at 0.05 µM (A549 [12]): 56.6% | Activity [14]: Non-Toxic | Activity [17]: Non-Toxic | viability at 0.025 µM (A549 [18]): 69.1% | Activity (A549 [19]): 16.41% | Activity (A549 [20]): 89.07% | Activity (A549 [21]): 13.1% | Activity (A549 [22]): 26.53% | Activity (A549 [23]): 18.11% | viability at 0.0125 µM (A549 [24]): 92.3% | inhibition at 0.0125 µM (A549 [25]): 32.3% | Activity (A549 [26]): 12.23% | inhibition (Sus scrofa): Dose-Dependent Effect | Ratio IC50 [4]: 1.2 | inhibition in vivo at 25 mg/kg (A549 [5]): 64.1% | Activity [27]: Non-Toxic | Activity (A549 [29]): 1.19% | Activity (A549 [30]): 68.78% | Activity (A549 [31]): 3.28% | Activity (A549 [32]): 2.26% | Activity [33]: Non-Toxic | inhibition at 0.025 µM (A549 [34]): 52.2% | Activity (A549 [35]): 3.04%
